The results in this text go back to ChEMBL document CHEMBL2073947, “The human multidrug resistance protein MRP4 functions as a prostaglandin efflux transporter and is inhibited by nonsteroidal antiinflammatory drugs” (Proc Natl Acad Sci U S A, 2003).

What all share (set-up): scale not given: the % may be the effect or the level left
Series [1] concerns the target T1, ATP-binding cassette sub-family C member 4 (Homo sapiens, UniProt O15439).
T1 sequence (O15439 whole entry): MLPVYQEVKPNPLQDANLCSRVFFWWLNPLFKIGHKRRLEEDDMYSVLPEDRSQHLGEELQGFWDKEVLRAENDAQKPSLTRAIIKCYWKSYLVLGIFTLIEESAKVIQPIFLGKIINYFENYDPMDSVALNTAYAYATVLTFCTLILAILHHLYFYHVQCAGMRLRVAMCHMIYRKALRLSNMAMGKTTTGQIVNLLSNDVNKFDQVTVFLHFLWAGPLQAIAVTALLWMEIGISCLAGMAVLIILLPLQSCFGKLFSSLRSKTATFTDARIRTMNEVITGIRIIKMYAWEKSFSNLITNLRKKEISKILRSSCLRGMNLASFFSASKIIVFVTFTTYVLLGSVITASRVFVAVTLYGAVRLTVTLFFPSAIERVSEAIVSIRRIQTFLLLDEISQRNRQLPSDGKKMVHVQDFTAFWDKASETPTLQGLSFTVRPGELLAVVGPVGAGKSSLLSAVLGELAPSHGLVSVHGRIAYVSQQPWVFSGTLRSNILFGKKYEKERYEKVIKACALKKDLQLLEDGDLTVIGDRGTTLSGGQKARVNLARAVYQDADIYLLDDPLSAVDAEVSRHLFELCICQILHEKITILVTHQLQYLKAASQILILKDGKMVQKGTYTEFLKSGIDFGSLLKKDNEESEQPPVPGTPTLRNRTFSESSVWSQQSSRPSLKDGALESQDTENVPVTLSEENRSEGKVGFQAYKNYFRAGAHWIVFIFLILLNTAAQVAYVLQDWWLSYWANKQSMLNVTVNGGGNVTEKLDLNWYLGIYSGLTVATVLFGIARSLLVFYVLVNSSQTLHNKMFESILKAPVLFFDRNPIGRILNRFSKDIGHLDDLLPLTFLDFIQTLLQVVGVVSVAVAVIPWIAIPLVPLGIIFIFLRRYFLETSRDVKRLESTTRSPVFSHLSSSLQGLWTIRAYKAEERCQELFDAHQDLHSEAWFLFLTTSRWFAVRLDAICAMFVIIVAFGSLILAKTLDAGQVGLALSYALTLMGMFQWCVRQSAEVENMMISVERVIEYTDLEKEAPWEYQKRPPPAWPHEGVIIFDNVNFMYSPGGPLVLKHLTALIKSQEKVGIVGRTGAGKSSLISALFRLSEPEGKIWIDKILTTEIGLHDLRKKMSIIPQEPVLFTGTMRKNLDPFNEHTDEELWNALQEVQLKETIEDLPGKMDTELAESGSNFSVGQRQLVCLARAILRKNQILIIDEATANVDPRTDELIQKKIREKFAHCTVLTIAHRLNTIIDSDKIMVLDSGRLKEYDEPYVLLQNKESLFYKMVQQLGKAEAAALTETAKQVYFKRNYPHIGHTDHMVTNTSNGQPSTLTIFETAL
Briefly: TP_TRANSPORTER: inhibition of E217betaG in the presence of Rofecoxib at a concentration of 100uM in membrane vesicles from MRP4-expressing Sf9 cells. The note with it: sf9, 100 µM. The format is functional, cell membranes, Membrane vesicle.

Series [2] addresses T1, ATP-binding cassette sub-family C member 4. Briefly: TP_TRANSPORTER: inhibition of E217betaG in the presence of Celecoxib at a concentration of 50uM in membrane vesicles from MRP4-expressing Sf9 cells. The format is functional, cell membranes, Membrane vesicle. The note with it: sf9, 50 µM.
Series [3] addresses Multidrug resistance-associated protein 1 (Homo sapiens, UniProt P33527). In words: TP_TRANSPORTER: inhibition of E217betaG in the presence of Indomethacin at a concentration of 50uM in membrane vesicles from MRP1-expressing Sf9 cells. The note with it: sf9, 50 µM. Type of series: functional, cell membranes, Membrane vesicle.
In series [4] the target is T1, ATP-binding cassette sub-family C member 4. In words: TP_TRANSPORTER: inhibition of E217betaG in the presence of Indomethacin at a concentration of 50uM in membrane vesicles from MRP4-expressing Sf9 cells. The format is functional, cell membranes, Membrane vesicle. The note with it: sf9, 50 µM.
Series [5] concerns the target ATP-binding cassette sub-family C member 5 (Homo sapiens, UniProt O15440). In words: TP_TRANSPORTER: inhibition of alaninyl-d4TMP by Thromboxane B2 at a concentration of 20uM in membrane vesicle from MRP5-expressing HEK293 cells. The format is functional, cell membranes. The note with it: hek293, 20 µM.
For series [6], the target named is Multidrug resistance associated protein (Homo sapiens) (UniProt Q96QA9). In words: TP_TRANSPORTER: inhibition of alaninyl-d4TMP by Thromboxane B2 at a concentration of 20uM in membrane vesicle from MRP3-expressing Sf9 cells. Type of series: functional, cell membranes.
Multidrug resistance associated protein (Homo sapiens), sequence (Q96QA9 as listed by the source): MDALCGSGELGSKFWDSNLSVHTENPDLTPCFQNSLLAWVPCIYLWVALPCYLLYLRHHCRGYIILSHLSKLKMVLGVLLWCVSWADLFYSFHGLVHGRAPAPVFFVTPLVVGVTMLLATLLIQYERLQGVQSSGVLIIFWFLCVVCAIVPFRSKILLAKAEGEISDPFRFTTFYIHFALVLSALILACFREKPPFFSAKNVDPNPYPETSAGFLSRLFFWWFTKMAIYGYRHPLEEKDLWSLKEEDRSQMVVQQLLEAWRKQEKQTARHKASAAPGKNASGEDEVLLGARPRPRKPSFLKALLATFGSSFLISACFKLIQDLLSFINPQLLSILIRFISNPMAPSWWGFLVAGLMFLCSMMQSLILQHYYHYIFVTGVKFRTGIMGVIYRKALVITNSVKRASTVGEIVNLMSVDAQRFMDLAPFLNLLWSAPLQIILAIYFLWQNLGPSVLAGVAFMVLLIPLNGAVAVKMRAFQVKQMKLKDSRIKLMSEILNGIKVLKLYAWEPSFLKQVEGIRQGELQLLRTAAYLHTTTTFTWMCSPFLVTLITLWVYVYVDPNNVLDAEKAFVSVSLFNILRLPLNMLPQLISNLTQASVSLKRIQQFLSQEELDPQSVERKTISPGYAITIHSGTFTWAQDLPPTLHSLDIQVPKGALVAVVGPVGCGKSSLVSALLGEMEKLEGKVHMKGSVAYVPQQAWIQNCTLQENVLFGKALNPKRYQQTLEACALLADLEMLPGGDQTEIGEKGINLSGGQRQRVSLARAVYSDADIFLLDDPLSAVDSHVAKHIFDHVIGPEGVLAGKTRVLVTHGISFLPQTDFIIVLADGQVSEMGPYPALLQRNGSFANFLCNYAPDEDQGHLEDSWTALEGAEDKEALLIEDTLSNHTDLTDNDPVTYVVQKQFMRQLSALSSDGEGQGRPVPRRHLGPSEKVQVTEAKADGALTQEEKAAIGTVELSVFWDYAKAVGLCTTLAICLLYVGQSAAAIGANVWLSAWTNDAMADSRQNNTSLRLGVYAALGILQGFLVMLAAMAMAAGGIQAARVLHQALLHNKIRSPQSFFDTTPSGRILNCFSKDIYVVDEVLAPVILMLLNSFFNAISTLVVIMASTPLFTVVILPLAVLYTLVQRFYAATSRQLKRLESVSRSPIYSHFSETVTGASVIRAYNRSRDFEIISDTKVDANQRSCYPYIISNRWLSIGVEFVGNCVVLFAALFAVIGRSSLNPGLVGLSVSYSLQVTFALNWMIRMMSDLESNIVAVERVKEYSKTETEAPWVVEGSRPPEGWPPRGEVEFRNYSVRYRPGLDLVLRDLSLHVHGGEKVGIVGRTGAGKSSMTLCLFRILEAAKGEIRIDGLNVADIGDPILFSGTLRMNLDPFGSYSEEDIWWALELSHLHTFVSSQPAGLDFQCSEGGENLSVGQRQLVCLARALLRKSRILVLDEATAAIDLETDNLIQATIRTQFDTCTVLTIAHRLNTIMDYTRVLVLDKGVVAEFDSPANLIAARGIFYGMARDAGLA
Series [7] addresses T2, MRP4 (ATP-binding cassette sub-family C member 4) (Homo sapiens, UniProt O15439).
T2 sequence (O15439 whole entry): T1 sequence (O15439 whole entry)
In words: TP_TRANSPORTER: inhibition of alaninyl-d4TMP in the presence of Thromboxane B2 at a concentration of 20uM in membrane vesicles from MRP4-expressing Sf9 cells. Conditions: probe alaninyl-d4TMP, read-out: Activity. Type of series: functional, cell membranes, Membrane vesicle.

Series [8] deals with MRP1 (Multidrug resistance-associated protein 1) (Homo sapiens, UniProt P33527). In words: TP_TRANSPORTER: inhibition of alaninyl-d4TMP in the presence of Thromboxane B2 at a concentration of 20uM in membrane vesicles from MRP1-expressing Sf9 cells. Conditions: probe alaninyl-d4TMP, read-out: Activity. Type of series: functional, cell membranes, Membrane vesicle.
Series [9] addresses MRP5 (ATP-binding cassette sub-family C member 5) (Homo sapiens, UniProt O15440). In words: TP_TRANSPORTER: inhibition of alaninyl-d4TMP by Prostaglandin E1 at a concentration of 20uM in membrane vesicle from MRP5-expressing HEK293 cell. The format is functional, cell membranes. Conditions: membrane vesicles from MRP5-expressing HEK293 cells, probe alaninyl-d4TMP, read-out: Activity.

Series [10] has as its target T1, ATP-binding cassette sub-family C member 4. In words: TP_TRANSPORTER: inhibition of E217betaG in the presence of Ketoprofen at a concentration of 50uM in membrane vesicles from MRP4-expressing Sf9 cells. Type of series: functional, cell membranes, Membrane vesicle. Conditions: sf9, 50 µM.
Series [11] concerns the target T2, MRP4 (ATP-binding cassette sub-family C member 4). In words: TP_TRANSPORTER: inhibition of alaninyl-d4TMP in the presence of Prostaglandin F1alpha at a concentration of 20uM in membrane vesicles from MRP4-expressing Sf9 cells. The format is functional, cell membranes, Membrane vesicle. The note with it: probe alaninyl-d4TMP, read-out: Activity.

ATP-binding cassette sub-family C member 5, sequence (O15440 whole entry): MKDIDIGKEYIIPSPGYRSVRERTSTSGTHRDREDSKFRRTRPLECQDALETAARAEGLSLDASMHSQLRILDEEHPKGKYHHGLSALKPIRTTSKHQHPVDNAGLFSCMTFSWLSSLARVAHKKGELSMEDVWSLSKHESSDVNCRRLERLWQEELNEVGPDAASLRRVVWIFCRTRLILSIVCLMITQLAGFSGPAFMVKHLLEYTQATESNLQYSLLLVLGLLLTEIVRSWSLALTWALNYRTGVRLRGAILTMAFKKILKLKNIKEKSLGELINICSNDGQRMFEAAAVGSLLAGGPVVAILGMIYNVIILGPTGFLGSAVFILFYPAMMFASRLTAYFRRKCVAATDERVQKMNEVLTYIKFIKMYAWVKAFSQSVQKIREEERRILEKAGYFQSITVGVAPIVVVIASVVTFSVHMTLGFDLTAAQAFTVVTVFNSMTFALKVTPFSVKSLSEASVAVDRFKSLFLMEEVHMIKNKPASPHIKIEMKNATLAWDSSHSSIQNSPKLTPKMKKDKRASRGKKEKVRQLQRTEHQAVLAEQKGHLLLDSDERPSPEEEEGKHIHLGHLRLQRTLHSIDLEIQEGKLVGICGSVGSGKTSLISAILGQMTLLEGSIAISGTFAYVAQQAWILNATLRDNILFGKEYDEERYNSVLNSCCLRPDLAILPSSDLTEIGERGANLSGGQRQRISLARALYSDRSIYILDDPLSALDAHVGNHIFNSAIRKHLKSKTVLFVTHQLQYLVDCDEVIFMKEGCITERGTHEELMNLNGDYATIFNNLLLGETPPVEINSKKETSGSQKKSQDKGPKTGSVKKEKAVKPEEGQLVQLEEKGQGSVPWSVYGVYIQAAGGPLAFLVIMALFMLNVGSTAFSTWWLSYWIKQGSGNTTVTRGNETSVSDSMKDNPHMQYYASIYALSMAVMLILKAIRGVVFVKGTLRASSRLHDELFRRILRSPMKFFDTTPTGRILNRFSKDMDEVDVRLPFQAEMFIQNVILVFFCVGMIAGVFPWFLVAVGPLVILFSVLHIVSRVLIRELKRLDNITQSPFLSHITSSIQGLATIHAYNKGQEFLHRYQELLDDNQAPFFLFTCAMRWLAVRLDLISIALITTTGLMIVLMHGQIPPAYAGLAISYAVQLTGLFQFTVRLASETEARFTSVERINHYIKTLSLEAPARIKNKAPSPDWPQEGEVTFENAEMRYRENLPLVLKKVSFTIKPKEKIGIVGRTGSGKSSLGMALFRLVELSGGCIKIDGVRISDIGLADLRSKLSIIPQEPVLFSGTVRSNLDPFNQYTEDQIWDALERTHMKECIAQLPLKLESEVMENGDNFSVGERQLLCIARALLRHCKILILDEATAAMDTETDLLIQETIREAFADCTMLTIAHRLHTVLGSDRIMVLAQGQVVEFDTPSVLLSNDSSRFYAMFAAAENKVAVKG
MRP5 (ATP-binding cassette sub-family C member 5), sequence (O15440 whole entry): as above

As to `CS(=O)(=O)c1ccc(C2=C(c3ccccc3)C(=O)OC2)cc1` [ROFECOXIB], in series [1], the Activity stood at 80%. With `Cc1ccc(-c2cc(C(F)(F)F)nn2-c2ccc(S(N)(=O)=O)cc2)cc1` [CELECOXIB], in series [2], the Activity was 78%. Regarding `COc1ccc2c(c1)c(CC(=O)O)c(C)n2C(=O)c1ccc(Cl)cc1` [INDOMETHACIN], the Activity is 56% in series [3] and 11% in [4]. Take `CCCCC[C@H](O)/C=C/[C@H]1OC(O)C[C@H](O)[C@@H]1C/C=C\CCCC(=O)O` (stereo partly specified) [THROMBOXANE B2]: the Activity is 77% in [5] and 76% in series [6]. Moreover, the values for the activity at 20 µM in [7] and in series [8] were 29% and 66%, respectively. `CCCCC[C@H](O)/C=C/[C@H]1[C@H](O)CC(=O)[C@@H]1CCCCCCC(=O)O` [ALPROSTADIL]: the activity at 20 µM in series [9] came to 69%.

For the compound `CC(C(=O)O)c1cccc(C(=O)c2ccccc2)c1` (stereo unspecified) [KETOPROFEN], the Activity in series [10] turned out to be 35%. As for `CCCCC[C@H](O)/C=C/[C@@H]1[C@@H](CCCCCCC(=O)O)[C@@H](O)C[C@H]1O` [PROSTAGLANDIN F1ALPHA], the activity at 20 µM in series [11] is 29%.
